The term EC50 denotes the concentration needed to bring the measured effect to its halfway point. A low value points to greater potency.

The values that follow come from patent US9309262B2 (ABT Holding Company, priority 2013, dated 2016).

This assay addresses T1, human 5HT2c receptor (VSV isoform) (Homo sapiens, UniProt P28335, I156V/I160V/N158S).
T1 construct: expressed in transfected cells; host or cells: HEK 293 EBNA, stably transfected
T1 sequence (P28335 33-458 I156V/N158S/I160V): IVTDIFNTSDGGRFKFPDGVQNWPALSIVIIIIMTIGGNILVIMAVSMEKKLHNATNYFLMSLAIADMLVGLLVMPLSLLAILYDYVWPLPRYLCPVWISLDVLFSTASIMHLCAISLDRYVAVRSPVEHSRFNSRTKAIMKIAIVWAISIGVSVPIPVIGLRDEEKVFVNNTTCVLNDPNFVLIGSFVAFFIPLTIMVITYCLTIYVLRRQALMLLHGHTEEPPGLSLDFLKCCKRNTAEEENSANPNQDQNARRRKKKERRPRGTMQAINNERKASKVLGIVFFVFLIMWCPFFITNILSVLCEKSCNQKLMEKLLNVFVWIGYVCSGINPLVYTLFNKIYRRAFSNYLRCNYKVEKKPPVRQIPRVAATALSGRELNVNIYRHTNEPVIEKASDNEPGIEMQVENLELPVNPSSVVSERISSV
Description: cell-based.
Consider `CCn1ccc2sc3c(c21)CCNCC3` [Example 1, 3,4,5,6,7,8-Hexahydro-9-thia-3,6-diaza-cyclopenta[a]alazulene], for which the EC50 was under 0.01 µM.

For `c1ccc(Cn2ccc3sc4c(c32)CCNCC4)cc1` [Example 4, 3-Benzyl-3,4,5,6,7,8-hexahydro-9-thia-3,6-diaza-cyclopenta[a]azulene], the EC50 is under 0.01 µM.

`Clc1ccc(-n2ccc3sc4c(c32)CCNCC4)cc1` [Example 5, 3-(4-Chloro-phenyl)-3,4,5,6,7,8-hexahydro-9-thia-3,6-diaza-cyclopenta[a]azulene]: the EC50 was under 1 µM.

As to `Cc1ccccc1Cn1ccc2sc3c(c21)CCNCC3` [Example 6, 3-(2-Methyl-benzyl)-3,4,5,6,7,8-hexahydro-9-thia-3,6-diaza-cyclopenta[a]azulene], the concentration giving a half-maximal response (EC50) was under 0.01 µM.

The compound `Cc1cccc(Cn2ccc3sc4c(c32)CCNCC4)c1` [Example 7, 3-(3-Methyl-benzyl)-3,4,5,6,7,8-hexahydro-9-thia-3,6-diaza-cyclopenta[a]azulene] returned an EC50 of under 0.01 µM.

The compound `Cc1ccc(Cn2ccc3sc4c(c32)CCNCC4)cc1` [Example 8, 3-(4-Methyl-benzyl)-3,4,5,6,7,8-hexahydro-9-thia-3,6-diaza-cyclopenta[a]azulene] returned an EC50 of under 0.01 µM.

As for `Clc1cccc(Cn2ccc3sc4c(c32)CCNCC4)c1` [Example 10], the EC50 was under 0.01 µM.

`Clc1ccc(Cn2ccc3sc4c(c32)CCNCC4)cc1` [Example 11]: the EC50 is under 0.01 µM.

`Cc1ccc(-n2ccc3sc4c(c32)CCNCC4)cc1` [Example 13, 3-p-Tolyl-3,4,5,6,7,8-hexahydro-9-thia-3,6-diaza-cyclopenta[a]azulene] registered an EC50 of under 0.1 µM.

`COc1ccc(-n2ccc3sc4c(c32)CCNCC4)cc1` [Example 14, 3-(4-Methoxy-phenyl)-3,4,5,6,7,8-hexahydro-9-thia-3,6-diaza-cyclopenta[a]azulene] showed an EC50 of under 0.1 µM.

`Cc1cccc(-n2ccc3sc4c(c32)CCNCC4)c1` [Example 15, 3-m-Tolyl-3,4,5,6,7,8-hexahydro-9-thia-3,6-diaza-cyclopenta[a]azulene] came in with an EC50 of under 0.1 µM.

Consider `COc1cccc(-n2ccc3sc4c(c32)CCNCC4)c1` [Example 16, 3-(3-Methoxy-phenyl)-3,4,5,6,7,8-hexahydro-9-thia-3,6-diaza-cyclopenta[a]azulene], for which the EC50 is under 1 µM.

In turn, `Clc1cccc(-n2ccc3sc4c(c32)CCNCC4)c1` [Example 17, 3-(3-Chloro-phenyl)-3,4,5,6,7,8-hexahydro-9-thia-3,6-diaza-cyclopenta[a]azulene] had an EC50 of under 0.1 µM.

`COc1cccc(Cn2ccc3sc4c(c32)CCNCC4)c1` [Example 18, 3-(3-Methoxy-benzyl)-3,4,5,6,7,8-hexahydro-9-thia-3,6-diaza-cyclopenta[a]azulene] had an EC50 of under 0.01 µM.

Regarding `COc1ccc(Cn2ccc3sc4c(c32)CCNCC4)cc1` [Example 19, 3-(4-Methoxy-benzyl)-3,4,5,6,7,8-hexahydro-9-thia-3,6-diaza-cyclopenta[a]azulene], the EC50 is under 0.1 µM.

`c1cn(CC2CCCCC2)c2c3c(sc12)CCNCC3` [Example 20, 3-Cyclohexylmethyl-3,4,5,6,7,8-hexahydro-9-thia-3,6-diaza-cyclopenta[a]azulene]: the EC50 is under 0.1 µM.

Consider `c1ccc2c(Cn3ccc4sc5c(c43)CCNCC5)cccc2c1` [Example 21, 3-Naphthalen-1-ylmethyl-3,4,5,6,7,8-hexahydro-9-thia-3,6-diaza-cyclopenta[a]azulene], for which the EC50 is under 0.01 µM.

For the compound `Clc1cccc(Cn2ccc3sc4c(c32)CCNCC4)c1Cl` [Example 22, 3-(2,3-Dichloro-benzyl)-3,4,5,6,7,8-hexahydro-9-thia-3,6-diaza-cyclopenta[a]azulene], the EC50 is under 0.01 µM.

In turn, `Clc1ccc(Cn2ccc3sc4c(c32)CCNCC4)cc1Cl` [Example 23, 3-(3,4-Dichloro-benzyl)-3,4,5,6,7,8-hexahydro-9-thia-3,6-diaza-cyclopenta[a]azulene] had a concentration for a half-maximal effect (EC50) of under 0.01 µM.

For the compound `c1cnc2c(Cn3ccc4sc5c(c43)CCNCC5)cccc2c1` [Example 24, 3-Quinolin-8-ylmethyl-3,4,5,6,7,8-hexahydro-9-thia-3,6-diaza-cyclopenta[a]azulene], the concentration giving a half-maximal response (EC50) is under 0.1 µM.

`c1cc(Cn2ccc3sc4c(c32)CCNCC4)c2ccncc2c1` [Example 25, 3-Isoquinolin-5-ylmethyl-3,4,5,6,7,8-hexahydro-9-thia-3,6-diaza-cyclopenta[a]azulene] showed an EC50 of under 0.01 µM.

`c1ccc2c(Cn3ccc4sc5c(c43)CCNCC5)nccc2c1` [Example 26, 3-Isoquinolin-1-ylmethyl-3,4,5,6,7,8-hexahydro-9-thia-3,6-diaza-cyclopenta[a]azulene]: the EC50 is under 0.01 µM.
